ChEMBL document CHEMBL1201862, “PubChem BioAssay data set” (2004)
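1) Cells in 96-well plates. 2) Compound, 48 h, 5 concentrations. 3) Linear interpolation between surrounding doses. 4) Unreached endpoint = highest concentration. Here, GI50 denotes the concentration required for 50% inhibition of growth.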 Active and inactive are the calls of the source. No stated cut-off is given here; in the data, active = GI50 up to about 1.1 µM and inactive = higher.

Tests used:
Test in all cases: DTP human tumour cell line panel, 48 h
OVCAR-3 = test system: OVCAR-3
OVCAR-5 = test system: OVCAR-5
T47D = test system: T47D
EKVX = test system: EKVX
M14 = test system: M14
SN12C = test system: SN12C
NCI-H460 = test system: NCI-H460
UACC-62 = test system: UACC-62
MOLT-4 = test system: MOLT-4
IGROV-1 = test system: IGROV-1
SK-MEL-2 = test system: SK-MEL-2
HT-29 = test system: HT-29
SK-MEL-5 = test system: SK-MEL-5
SNB-75 = test system: SNB-75
NCI-H23 = test system: NCI-H23
SNB-19 = test system: SNB-19
786-0 = test system: 786-0
UACC-257 = test system: UACC-257
CAKI-1 = test system: CAKI-1
U-251 = test system: U-251
SK-OV-3 = test system: SK-OV-3
SF-268 = test system: SF-268
CCRF-CEM = test system: CCRF-CEM
LOX IMVI = test system: LOX IMVI
ACHN = test system: ACHN
K562 = test system: K562
SR = test system: SR
MDA-MB-231 = test system: MDA-MB-231
MCF7 = test system: MCF7
PC-3 = test system: PC-3
HCC 2998 = test system: HCC 2998
SF-295 = test system: SF-295
SF-539 = test system: SF-539
Hs-578T = test system: Hs-578T
DU-145 = test system: DU-145
OVCAR-8 = test system: OVCAR-8
UO-31 = test system: UO-31
HCT-15 = test system: HCT-15
OVCAR-4 = test system: OVCAR-4
NCI-H522 = test system: NCI-H522
COLO 205 = test system: COLO 205
SK-MEL-28 = test system: SK-MEL-28
RPMI-8226 = test system: RPMI-8226
HCT-116 = test system: HCT-116
A549 = test system: A549
MDA-MB-435 = test system: MDA-MB-435
HOP-62 = test system: HOP-62
NCI/ADR-RES = test system: NCI/ADR-RES
KM12 = test system: KM12
MDA-N = test system: MDA-N
NCI-H226 = test system: NCI-H226
SW-620 = test system: SW-620
RXF 393 = test system: RXF 393
HL-60 = test system: HL-60
Malme-3M = test system: Malme-3M
HOP-92 = test system: HOP-92
TK-10 = test system: TK-10

C=CCNC(=S)N/C=C(\C(=O)OCC)C(=O)C(=O)OCC
GI50 (OVCAR-3): > 100 µM (inactive) | GI50 (OVCAR-5): > 100 µM (inactive) | GI50 (T47D): > 100 µM (inactive) | GI50 (EKVX): > 100 µM (inactive) | GI50 (M14): > 100 µM (inactive) | GI50 (SN12C): > 100 µM (inactive) | GI50 (NCI-H460): > 100 µM (inactive) | GI50 (UACC-62): > 100 µM (inactive) | GI50 (MOLT-4): > 100 µM (inactive) | GI50 (IGROV-1): > 100 µM (inactive) | GI50 (SK-MEL-2): > 100 µM (inactive) | GI50 (HT-29): > 100 µM (inactive) | GI50 (SK-MEL-5): > 100 µM (inactive) | GI50 (SNB-75): > 100 µM (inactive) | GI50 (NCI-H23): > 100 µM (inactive) | GI50 (SNB-19): > 100 µM (inactive) | GI50 (786-0): > 100 µM (inactive) | GI50 (UACC-257): > 100 µM (inactive) | GI50 (CAKI-1): > 100 µM (inactive) | GI50 (U-251): > 100 µM (inactive) | GI50 (SK-OV-3): > 100 µM (inactive) | GI50 (SF-268): > 100 µM (inactive) | GI50 (CCRF-CEM): > 100 µM (inactive) | GI50 (LOX IMVI): > 100 µM (inactive) | GI50 (ACHN): > 100 µM (inactive) | GI50 (K562): > 100 µM (inactive) | GI50 (SR): > 100 µM (inactive) | GI50 (MDA-MB-231): > 100 µM (inactive) | GI50 (MCF7): > 100 µM (inactive) | GI50 (PC-3): > 100 µM (inactive) | GI50 (HCC 2998): > 100 µM (inactive) | GI50 (SF-295): > 100 µM (inactive) | GI50 (SF-539): > 100 µM (inactive) | GI50 (Hs-578T): > 100 µM (inactive) | GI50 (DU-145): > 100 µM (inactive) | GI50 (OVCAR-8): > 100 µM (inactive) | GI50 (UO-31): > 100 µM (inactive) | GI50 (HCT-15): > 100 µM | GI50 (OVCAR-4): > 100 µM (inactive) | GI50 (NCI-H522): > 100 µM (inactive) | GI50 (COLO 205): > 100 µM (inactive) | GI50 (SK-MEL-28): > 100 µM (inactive) | GI50 (RPMI-8226): > 100 µM (inactive) | GI50 (HCT-116): > 100 µM (inactive) | GI50 (A549): > 100 µM (inactive) | GI50 (MDA-MB-435): > 100 µM (inactive) | GI50 (HOP-62): > 100 µM (inactive) | GI50 (NCI/ADR-RES): > 100 µM (inactive) | GI50 (KM12): > 100 µM (inactive) | GI50 (MDA-N): > 100 µM (inactive) | GI50 (NCI-H226): > 100 µM (inactive) | GI50 (SW-620): > 100 µM (inactive) | GI50 (RXF 393): > 100 µM (inactive) | GI50 (HL-60): > 100 µM (inactive) | GI50 (Malme-3M): > 100 µM (inactive)

CC1=[N+]([O-])C2(CCCC2)N(O)C1(C)C
GI50 (OVCAR-3): > 100 µM (inactive) | GI50 (OVCAR-5): > 100 µM (inactive) | GI50 (T47D): > 100 µM (inactive) | GI50 (EKVX): > 100 µM (inactive) | GI50 (M14): > 100 µM (inactive) | GI50 (SN12C): > 100 µM (inactive) | GI50 (NCI-H460): > 100 µM (inactive) | GI50 (UACC-62): > 100 µM (inactive) | GI50 (IGROV-1): > 100 µM (inactive) | GI50 (SK-MEL-2): > 100 µM (inactive) | GI50 (HT-29): > 100 µM (inactive) | GI50 (SK-MEL-5): > 100 µM (inactive) | GI50 (NCI-H23): > 100 µM (inactive) | GI50 (SNB-19): > 100 µM (inactive) | GI50 (786-0): > 100 µM (inactive) | GI50 (UACC-257): > 100 µM (inactive) | GI50 (CAKI-1): > 100 µM (inactive) | GI50 (U-251): > 100 µM (inactive) | GI50 (SK-OV-3): > 100 µM (inactive) | GI50 (SF-268): > 100 µM (inactive) | GI50 (LOX IMVI): > 100 µM (inactive) | GI50 (ACHN): > 100 µM (inactive) | GI50 (K562): > 100 µM (inactive) | GI50 (MDA-MB-231): > 100 µM (inactive) | GI50 (MCF7): > 100 µM (inactive) | GI50 (PC-3): > 100 µM (inactive) | GI50 (HCC 2998): > 100 µM (inactive) | GI50 (SF-295): > 100 µM (inactive) | GI50 (SF-539): > 100 µM (inactive) | GI50 (Hs-578T): > 100 µM (inactive) | GI50 (DU-145): > 100 µM (inactive) | GI50 (OVCAR-8): > 100 µM (inactive) | GI50 (HOP-92): > 100 µM (inactive) | GI50 (UO-31): > 100 µM (inactive) | GI50 (HCT-15): > 100 µM | GI50 (OVCAR-4): > 100 µM (inactive) | GI50 (COLO 205): > 100 µM (inactive) | GI50 (SK-MEL-28): > 100 µM (inactive) | GI50 (RPMI-8226): > 100 µM (inactive) | GI50 (HCT-116): > 100 µM (inactive) | GI50 (A549): > 100 µM (inactive) | GI50 (MDA-MB-435): > 100 µM (inactive) | GI50 (HOP-62): > 100 µM (inactive) | GI50 (NCI/ADR-RES): > 100 µM (inactive) | GI50 (KM12): > 100 µM (inactive) | GI50 (MDA-N): > 100 µM (inactive) | GI50 (NCI-H226): > 100 µM (inactive) | GI50 (SW-620): > 100 µM (inactive) | GI50 (RXF 393): > 100 µM (inactive) | GI50 (HL-60): > 100 µM (inactive) | GI50 (Malme-3M): > 100 µM (inactive) | GI50 (TK-10): > 100 µM (inactive)
